According to patent US8609659B2, “Substituted 3,8-diazabicyclo[3.2.1]octane compounds” (Neuroscienze Pharmaness S.C.A.R.L., priority 2009, dated 2013):
Like-named read-outs stand apart in the source and are kept apart here.

Target: T1, δ opioidergic receptors (Mus musculus, UniProt P32300)
T1 construct: from tissue; host or cells: CD1 mouse vas deferens segments (isolated organ)
Assay: Ex-vivo model, isolated organ: electrically induced contractions of mouse vas deferens
Settings: for % contraction inhibition: no antagonist, average of 7 experiments; for activity towards the delta opioid receptors: inhibition of contractions antagonized by ICI 17.4864 or Naltrindol; for inhibition: read-out: % contraction inhibition after addition of ICI 17.4864
Description: Said effect is antagonized by selective antagonists of the delta opioid receptors, for example the compounds ICI 17.4864 and Naltrindol.
For evaluating the activity of the compounds of the invention on the delta opioid receptors, the compounds respectively obtained in Examples 6.1 and 6.9 were subjected to tests carried out on the basis of the method described by E. J. Bilsky et al. (J.P.E.T., 1995 April; 273 (1):359-366). The experiments were carried out on samples of vas deferent segments taken from CD1 mice (25-30 grams) immediately after sacrifice. After the explant, the vas deferent segments were transferred in a Petri dish containing a Krebs oxygenated solution (118.2 mM NaCl, 4.75 mM KCl, 1.19 mM KH2PO4, 25.0 mM NaHCO3, 11.0 mM glucose, and 2.54 mM CaCl2) in order to proceed to the cleaning of the samples and their subsequent dissection in segments. Segments of vas deferens were so obtained having a length of 1.0-1.2 cm. They were thus immersed in tubs containing 10 ml of an oxygenated Krebs solution (95% O2 and 5% CO2) and kept at a temperature of 37° C. One end of the vas deferens segment was attached to a fixed support, at the tub bottom, while the other end was connected to an isometric force transducer (WPI Fort10, Biological Instruments, Besozzo, Italy) for the registration of the contractions induced by electric stimuli. The samples were then allowed to equilibrate for 60 minutes, changing the Krebs solution every 15 minutes. The samples were then subjected to treatment cycles wherein the electrical stimulation lasted 3 minutes, with an interval of 15 minutes before the following stimulation. The isometric contractions were evoked with sequences of 3 pulses (sequence frequency 0.1 Hz; pulse duration 2 ms) by means of platinum electrodes placed at the sides of the samples. The electrical stimuli were generated by a Grass S88K stimulator and amplified (multiplexing pulse booster 316S; Ugo Basile, Comerio, Italy). The musculature contractions of the vas deferens were monitored by a computer, recorded and analyzed by an analysis system (PowerLab 400). The compounds of the invention were added to the vas deferens in cumulative doses, in the absence or in the presence of one of the following antagonists of the delta opioid receptors: ICI 17.4864 and Naltrindol.
The effect of the tested compounds on the contractions of vas deferens musculature was expressed in percent, calculated by referring the amplitude of the contractions induced by the electrical stimulations after each addition of the test compound to the amplitude of the contractions obtained in the absence of the same compound (100%).
The results obtained with the compounds of Examples 6.1 and 6.9 are reported, respectively, in Table 2 and in Table 3. The results are an average of the data obtained in seven different experiments.

[1] = compound 10^−6 moles/litre + NTI 5 × 10^−8 M
[2] = compound 10^−7 moles/litre + NTI 5 × 10^−8 M
[3] = compound 10^−8 moles/litre + NTI 5 × 10^−8 M
[4] = compound 10^−9 moles/litre + NTI 5 × 10^−8 M
[5] = compound 10^−10 moles/litre + NTI 5 × 10^−8 M
[6] = compound 10^−11 moles/litre + NTI 5 × 10^−8 M

T1 sequence (P32300 whole entry): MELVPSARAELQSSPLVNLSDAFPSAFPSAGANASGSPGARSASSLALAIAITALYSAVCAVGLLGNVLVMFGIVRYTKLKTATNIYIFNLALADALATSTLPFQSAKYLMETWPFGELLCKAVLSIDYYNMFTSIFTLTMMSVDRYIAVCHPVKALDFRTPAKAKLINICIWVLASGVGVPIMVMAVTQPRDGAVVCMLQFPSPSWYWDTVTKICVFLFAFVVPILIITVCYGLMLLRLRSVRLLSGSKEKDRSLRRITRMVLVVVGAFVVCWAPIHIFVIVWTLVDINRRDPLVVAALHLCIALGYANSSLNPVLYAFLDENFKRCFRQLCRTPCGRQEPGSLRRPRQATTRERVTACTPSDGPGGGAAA

Structure (SMILES) | % contraction inhibition after addition of Naltrindol NTI [1] | % contraction inhibition (compound 10^−6 moles/litre) | % contraction inhibition after addition of Naltrindol NTI [2] | % contraction inhibition (compound 10^−7 moles/litre) | % contraction inhibition after addition of Naltrindol NTI [3] | % contraction inhibition (compound 10^−8 moles/litre) | % contraction inhibition after addition of Naltrindol NTI [4] | % contraction inhibition (compound 10^−9 moles/litre) | % contraction inhibition after addition of Naltrindol NTI [5] | % contraction inhibition (compound 10^−10 moles/litre) | % contraction inhibition after addition of Naltrindol NTI [6] | % contraction inhibition (compound 10^−11 moles/litre) | activity towards the delta opioid receptors | inhibition (compound 10^−6 moles/litre + ICI 17.4864 2 × 10^−6 M) | inhibition (compound 10^−7 moles/litre + ICI 17.4864 2 × 10^−6 M) | inhibition (compound 10^−8 moles/litre + ICI 17.4864 2 × 10^−6 M) | inhibition (compound 10^−9 moles/litre + ICI 17.4864 2 × 10^−6 M) | inhibition (compound 10^−10 moles/litre + ICI 17.4864 2 × 10^−6 M) | inhibition (compound 10^−11 moles/litre + ICI 17.4864 2 × 10^−6 M)
C=CCN1C2CCC1C1CCC2N1C(c1ccc(C(=O)N(CC)CC)cc1)c1cccc(OC)c1 (centres unmarked) [Example 6.1, 4-[(10-allyl-9,10-diazatricyclo[4.2.1.1^2,5]dec-9-yl)-(3-methoxyphenyl)methyl]-N,N-diethylbenzamide] | 41.0% | 86.0% | 24.9% | 71.5% | 19.0% | 51.0% | 11.5% | 32.0% | 5.0% | 16.0% | 4.0% | 5.5% | agonist activity |  |  |  |  |  | 
C=CCN1C2CCC1C1CCC2N1C(c1ccc(C(=O)N(CC)CC)cc1)c1cccc(O)c1 (centres unmarked) [Example 6.9, 4-[(10-allyl-9,10-diazatricyclo[4.2.1.1^2,5]dec-9-yl)-(3-hydroxyphenyl)methyl]-N,N-diethylbenzamide] | 67.5% | 85.0% | 29.0% | 83.0% | 8.9% | 70.0% | 5.2% | 40.0% | 4.5% | 17.0% | 3.0% | 7.5% | agonist activity | 52.2% | 28.2% | 9.5% | 4% | 2.5% | 1.8%
